How the values were obtained:
Homo sapiens [1] = species: Homo sapiens; experiment: Toxicity in human patient infected with Trypanosoma cruzi assessed as occurrence of myalgias; format: organism-based; settings: in vivo
Homo sapiens [2] = experiment: Toxicity in human patient infected with Trypanosoma cruzi assessed as occurrence of dolichocolon at 5 mg/kg/day for 60 days; format: organism-based, Colon; settings: in vivo, 1440 h
Homo sapiens [3] = experiment: Toxicity in human patient infected with Trypanosoma cruzi assessed as occurrence of Palmar-plantar rash at 5 mg/kg/day for 60 days; format: organism-based; settings: in vivo, 1440 h
Homo sapiens [4] = experiment: Toxicity in human patient infected with Trypanosoma cruzi assessed as occurrence of Fever at 5 mg/kg/day for 60 days; format: organism-based; settings: in vivo, 1440 h
Homo sapiens [5] = experiment: Toxicity in human patient infected with Trypanosoma cruzi assessed as occurrence of Aphthous stomatitis at 5 mg/kg/day for 60 days; format: organism-based; settings: in vivo, 1440 h
Homo sapiens [6] = species: Homo sapiens; experiment: Toxicity in human patient infected with Trypanosoma cruzi assessed as occurrence of polyneuritis on 4th week of treatment; format: organism-based; settings: in vivo
Homo sapiens [7] = species: Homo sapiens; experiment: Toxicity in human patient infected with Trypanosoma cruzi assessed as occurrence of lymphadenopathy; format: organism-based; settings: in vivo
Homo sapiens [8] = species: Homo sapiens; experiment: Toxicity in human patient infected with Trypanosoma cruzi assessed as occurrence of dermatitis with cutaneous eruptions on day 7 to 10; format: organism-based; settings: in vivo
Homo sapiens [9] = species: Homo sapiens; experiment: Toxicity in human patient infected with Trypanosoma cruzi assessed as occurrence of paresthesias on 4th week of treatment; format: organism-based; settings: in vivo
Homo sapiens [10] = experiment: Toxicity in human patient infected with Trypanosoma cruzi assessed as occurrence of Dysphagia at 5 mg/kg/day for 60 days; format: organism-based; settings: in vivo, 1440 h
Homo sapiens [11] = experiment: Toxicity in human patient infected with Trypanosoma cruzi assessed as occurrence of Petechial rash at 5 mg/kg/day for 60 days; format: organism-based; settings: in vivo, 1440 h
Homo sapiens [12] = experiment: Toxicity in human patient infected with Trypanosoma cruzi assessed as occurrence of Epigastralgia at 5 mg/kg/day for 60 days; format: organism-based; settings: in vivo, 1440 h
Homo sapiens [13] = experiment: Toxicity in human patient infected with Trypanosoma cruzi assessed as occurrence of Urticaria at 5 mg/kg/day for 60 days; format: organism-based; settings: in vivo, 1440 h
Homo sapiens [14] = experiment: Toxicity in human patient infected with Trypanosoma cruzi assessed as occurrence of Hearing impairment at 5 mg/kg/day for 60 days; format: organism-based; settings: in vivo, 1440 h
Homo sapiens [15] = experiment: Toxicity in human patient infected with Trypanosoma cruzi assessed as occurrence of Vomiting at 5 mg/kg/day for 60 days; format: organism-based; settings: in vivo, 1440 h
Homo sapiens [16] = experiment: Toxicity in human patient infected with Trypanosoma cruzi assessed as occurrence of Articular involvement at 5 mg/kg/day for 60 days; format: organism-based; settings: in vivo, 1440 h
Homo sapiens [17] = experiment: Toxicity in human patient infected with Trypanosoma cruzi assessed as occurrence of Itching at 5 mg/kg/day for 60 days; format: organism-based; settings: in vivo, 1440 h
Homo sapiens [18] = experiment: Toxicity in human patient infected with Trypanosoma cruzi assessed as occurrence of Arthromyalgia at 5 mg/kg/day for 60 days; format: organism-based; settings: in vivo, 1440 h
Homo sapiens [19] = experiment: Toxicity in human patient infected with Trypanosoma cruzi assessed as occurrence of Diarrhea at 5 mg/kg/day for 60 days; format: organism-based; settings: in vivo, 1440 h
Homo sapiens [20] = experiment: Toxicity in human patient infected with Trypanosoma cruzi assessed as occurrence of Abdominal bloating at 5 mg/kg/day for 60 days; format: organism-based, Abdomen; settings: in vivo, 1440 h
Homo sapiens [21] = species: Homo sapiens; experiment: Toxicity in human patient infected with Trypanosoma cruzi assessed as occurrence of thrombopenic purpura after 2nd week of treatment; format: organism-based; settings: in vivo
Homo sapiens [22] = experiment: Toxicity in human patient infected with Trypanosoma cruzi assessed as occurrence of Gastrointestinal disorders at 5 mg/kg/day for 60 days; format: organism-based; settings: in vivo, 1440 h
Homo sapiens [23] = experiment: Toxicity in human patient infected with Trypanosoma cruzi assessed as occurrence of Edema at 5 mg/kg/day for 60 days; format: organism-based; settings: in vivo, 1440 h
Homo sapiens [24] = species: Homo sapiens; experiment: Toxicity in human patient infected with Trypanosoma cruzi assessed as occurrence of arthralgias; format: organism-based; settings: in vivo
Homo sapiens [25] = species: Homo sapiens; experiment: Toxicity in human patient infected with Trypanosoma cruzi assessed as occurrence of polyneuropathy on 4th week of treatment; format: organism-based; settings: in vivo
Homo sapiens [26] = experiment: Toxicity in human patient infected with Trypanosoma cruzi assessed as occurrence of Mucositis at 5 mg/kg/day for 60 days; format: organism-based; settings: in vivo, 1440 h
Homo sapiens [27] = experiment: Toxicity in human patient infected with Trypanosoma cruzi assessed as occurrence of Dyshidrosis at 5 mg/kg/day for 60 days; format: organism-based; settings: in vivo, 1440 h
Homo sapiens [28] = species: Homo sapiens; experiment: Toxicity in human patient infected with Trypanosoma cruzi assessed as occurrence of hypersensitivity on day 7 to 10; format: organism-based; settings: in vivo
Homo sapiens [29] = experiment: Toxicity in human patient infected with Trypanosoma cruzi assessed as occurrence of cardiac disorders at 5 mg/kg/day for 60 days; format: organism-based, Heart; settings: in vivo, 1440 h
Homo sapiens [30] = experiment: Toxicity in human patient infected with Trypanosoma cruzi assessed as occurrence of Anorexia at 5 mg/kg/day for 60 days; format: organism-based; settings: in vivo, 1440 h
Homo sapiens [31] = experiment: Toxicity in human patient infected with Trypanosoma cruzi assessed as occurrence of Heartburn at 5 mg/kg/day for 60 days; format: organism-based; settings: in vivo, 1440 h
Homo sapiens [32] = species: Homo sapiens; experiment: Toxicity in human patient infected with Trypanosoma cruzi assessed as occurrence of agranulocytosis after 2nd week of treatment; format: organism-based; settings: in vivo
Homo sapiens [33] = experiment: Toxicity in human patient infected with Trypanosoma cruzi assessed as occurrence of Arthritis at 5 mg/kg/day for 60 days; format: organism-based; settings: in vivo, 1440 h
Homo sapiens [34] = experiment: Toxicity in human patient infected with Trypanosoma cruzi assessed as occurrence of Erythema nodosum at 5 mg/kg/day for 60 days; format: organism-based; settings: in vivo, 1440 h
Homo sapiens [35] = experiment: Toxicity in human patient infected with Trypanosoma cruzi assessed as occurrence of Dermatological disorder at 5 mg/kg/day for 60 days; format: organism-based; settings: in vivo, 1440 h
Homo sapiens [36] = experiment: Toxicity in human patient infected with Trypanosoma cruzi assessed as occurrence of Paresthesia at 5 mg/kg/day for 60 days; format: organism-based; settings: in vivo, 1440 h
Homo sapiens [37] = experiment: Toxicity in human patient infected with Trypanosoma cruzi assessed as occurrence of Headache at 5 mg/kg/day for 60 days; format: organism-based; settings: in vivo, 1440 h
Homo sapiens [38] = experiment: Toxicity in human patient infected with Trypanosoma cruzi assessed as occurrence of Nausea at 5 mg/kg/day for 60 days; format: organism-based; settings: in vivo, 1440 h
Homo sapiens [39] = experiment: Toxicity in human patient infected with Trypanosoma cruzi assessed as occurrence of Weakness at 5 mg/kg/day for 60 days; format: organism-based; settings: in vivo, 1440 h
Homo sapiens [40] = experiment: Toxicity in human patient infected with Trypanosoma cruzi assessed as occurrence of Hyperpigmentation at 5 mg/kg/day for 60 days; format: organism-based; settings: in vivo, 1440 h

O=C(Cn1ccnc1[N+](=O)[O-])NCc1ccccc1 [BENZNIDAZOLE]
Activity (Homo sapiens [1]): Toxic
Activity (Homo sapiens [2]): 1.9%
Activity (Homo sapiens [3]): Toxic
Activity (Homo sapiens [4]): 11%
Activity (Homo sapiens [5]): 1%
Activity (Homo sapiens [6]): Toxic
Activity (Homo sapiens [7]): Toxic
Activity (Homo sapiens [8]): Toxic
Activity (Homo sapiens [9]): Toxic
Activity (Homo sapiens [10]): Toxic
Activity (Homo sapiens [11]): 35.8%
Activity (Homo sapiens [12]): Toxic
Activity (Homo sapiens [13]): 43.4%
Activity (Homo sapiens [14]): 1%
Activity (Homo sapiens [15]): Toxic
Activity (Homo sapiens [16]): 36.2%
Activity (Homo sapiens [17]): 13.2%
Activity (Homo sapiens [18]): Toxic
Activity (Homo sapiens [19]): Toxic
Activity (Homo sapiens [20]): Toxic
Activity (Homo sapiens [21]): Toxic
Activity (Homo sapiens [22]): 15%
Activity (Homo sapiens [23]): Toxic
Activity (Homo sapiens [24]): Toxic
Activity (Homo sapiens [25]): Toxic
Activity (Homo sapiens [26]): Toxic
Activity (Homo sapiens [27]): Toxic
Activity (Homo sapiens [28]): Toxic
Activity (Homo sapiens [29]): 12.4%
Activity (Homo sapiens [30]): 40%
Activity (Homo sapiens [31]): Toxic
Activity (Homo sapiens [32]): Toxic
Activity (Homo sapiens [33]): Toxic
Activity (Homo sapiens [34]): Toxic
Activity (Homo sapiens [35]): 50.5%
Activity (Homo sapiens [36]): 27.6%
Activity (Homo sapiens [37]): 56.2%
Activity (Homo sapiens [38]): Toxic
Activity (Homo sapiens [39]): 30%
Activity (Homo sapiens [40]): Toxic
